Measured values from patent publication US5055487A, “Novel anti-fungal compounds” (Merck & Co., Inc., priority 1990, dated 1991).
Converted amounts (≈) assume the structure as drawn.

What was measured:
Type in all cases: cell-based
Crypt. neoformans MY1051 [1] = assay: Minimum fungicidal concentration, yeast: Crypt. neoformans MY1051; settings: Cryptococcus neoformans, no growth or no more than three colonies
Description: (§1) The compounds are particularly active towards filamentous fungi and yeasts including Candida albicans and Crypt. neoformans. The sensitivity of filamentous fungi and yeast was determined using inhibitor dilution assays in microtiter format. The compounds were dissolved in DMSO at 2 mg/ml and serially diluted in 0.1 M phosphate buffer, pH 7.0 in the microtiter dish from 100 to 0.006 μg/ml. A standardized spore suspension for testing the filamentous fungi was prepared by inoculating Antibiotic Medium #3 containing 1.5% agar with spores such that 1.5×10^3 colony forming units were added per we11. The microtiter wells were filled with 50 μl of buffer containing compound and 50 μl of inoculated medium. The sensitivity of yeasts was determined by inoculating yeast nitrogen base containing 1% dextrose (YNB/G) with aliquots of an overnight yeast culture grown in Yeast Morphology (YM) media at 35° C. and diluting in YNB/G to yield a final concentration of 1.5-7.5×10^3 colony forming units/well. One hundred fifty μl of inoculated media was added per well. To test the sensitivity of yeast, compound was solubilized in 10 percent aqueous DMSO at 2.56 mg/ml. The compound was diluted serially in YNB/G from 128 to 0.06 μg/ml. The wells were filled with 150 μl of drug containing media. […]

Crypt. neoformans MY1051 [2] = assay: Inhibitor dilution assay in microtiter format, yeast MIC: Crypt. neoformans MY1051; settings: Cryptococcus neoformans; Crypt. neoformans MY1051, 24 to 48 hours, 35° C.; read-out: Minimum Inhibitory Concentration
Description: as §1

Pen. italicum MF2819 = assay: Inhibitor dilution assay in microtiter format, filamentous fungi: Pen. italicum MF2819; settings: Penicillium italicum; Pen. italicum MF2819, 42 hours, 28° C.; read-out: Minimum Inhibitory Concentration
Description: as §1

A. flavus MF383 = assay: Inhibitor dilution assay in microtiter format, filamentous fungi: A. flavus MF383; settings: Aspergillus flavus; A. flavus MF383, 42 hours, 28° C.; read-out: Minimum Inhibitory Concentration
Description: as §1

A. niger MF442 = assay: Inhibitor dilution assay in microtiter format, filamentous fungi: A. niger MF442; settings: Aspergillus niger; A. niger MF442, 42 hours, 28° C.; read-out: Minimum Inhibitory Concentration
Description: as §1

Fus. oxysproum MF4014 = assay: Inhibitor dilution assay in microtiter format, filamentous fungi: Fus. oxysproum MF4014; settings: Fus. oxysproum MF4014, 42 hours, 28° C.; read-out: Minimum Inhibitory Concentration
Description: as §1

C. albicans MY1055 [3] = assay: Inhibitor dilution assay in microtiter format, yeast MIC: C. albicans MY1055; settings: Candida albicans; C. albicans MY1055, 24 to 48 hours, 35° C.; read-out: Minimum Inhibitory Concentration
Description: as §1

C. tropicalis MY1012 = assay: Inhibitor dilution assay in microtiter format, yeast MIC: C. tropicalis MY1012; settings: Candida tropicalis; C. tropicalis MY1012, 24 to 48 hours, 35° C.; read-out: Minimum Inhibitory Concentration
Description: as §1

C. tropialis MY1012 = assay: Minimum fungicidal concentration, yeast: C. tropialis MY1012; settings: no growth or no more than three colonies
Description: as §1

Coch. miyabeanus MF4626 = assay: Inhibitor dilution assay in microtiter format, filamentous fungi: Coch. miyabeanus MF4626; settings: Bipolaris oryzae, MF4626, 42 h, read-out: Minimum Inhibitory Concentration
Description: as §1

C. albicans MY1055 [4] = assay: Minimum fungicidal concentration, yeast: C. albicans MY1055; settings: Candida albicans, no growth or no more than three colonies
Description: as §1

C. parasilosos MY1010 = assay: Minimum fungicidal concentration, yeast: C. parasilosos MY1010; settings: no growth or no more than three colonies
Description: as §1

A. fumigatus MF4839 = assay: Inhibitor dilution assay in microtiter format, filamentous fungi: A. fumigatus MF4839; settings: Aspergillus fumigatus; A. fumigatus MF4839, 42 hours, 28° C.; read-out: Minimum Inhibitory Concentration
Description: as §1

C. parapsilosis MY1010 = assay: Inhibitor dilution assay in microtiter format, yeast MIC: C. parapsilosis MY1010; settings: Lodderomyces parapsilosis; C. parapsilosis MY1010, 24 to 48 hours, 35° C.; read-out: Minimum Inhibitory Concentration
Description: as §1

T. Mentagrophytes MF4864 = assay: Inhibitor dilution assay in microtiter format, filamentous fungi: T. Mentagrophytes MF4864; settings: Trichophyton mentagrophytes; T. Mentagrophytes MF4864, 42 hours, 28° C.; read-out: Minimum Inhibitory Concentration
Description: as §1

Row | SMILES | MFC (Crypt. neoformans MY1051 [1]) [µg/mL] | MIC (Crypt. neoformans MY1051 [2]) [µg/mL] | MIC (Pen. italicum MF2819) [µg/mL] | MIC (A. flavus MF383) [µg/mL] | MIC (A. niger MF442) [µg/mL] | MIC (Fus. oxysproum MF4014) [µg/mL] | MIC (C. albicans MY1055 [3]) [µg/mL] | MIC (C. tropicalis MY1012) [µg/mL] | MFC (C. tropialis MY1012) [µg/mL] | MIC (Coch. miyabeanus MF4626) [µg/mL] | MFC (C. albicans MY1055 [4]) [µg/mL] | MFC (C. parasilosos MY1010) [µg/mL] | MIC (A. fumigatus MF4839) [µg/mL] | MIC (C. parapsilosis MY1010) [µg/mL] | MIC (T. Mentagrophytes MF4864) [µg/mL]
1 | CC=CCCCCC=CCCCCC(=O)OC1C(O)C2(CCC(C)C(O)C(C)CC=Cc3ccccc3)OC(C(=O)O)C(O)(C(=O)O)C1(C(=O)O)O2 (stereo not shown) [Compound A] | 2 (≈ 2.74 µM) | 4 (≈ 5.47 µM) | 0.025 (≈ 0.0342 µM) | 0.098 (≈ 0.134 µM) | 100 (≈ 137 µM) | > 100 | 8 (≈ 10.9 µM) | 4 (≈ 5.47 µM) | 1 (≈ 1.37 µM) | 1.6 (≈ 2.19 µM) | 4 (≈ 5.47 µM) | 1 (≈ 1.37 µM) | 0.098 (≈ 0.134 µM) | 4 (≈ 5.47 µM) | 
2 | CC=CCCCCC=CCCCCC(=O)OC1C(O)C2(CCC(C)C(O)C(C)CC=Cc3ccccc3)OC(C(=O)OC)C(O)(C(=O)OC)C1(C(=O)OC)O2 (stereo not shown) [Compound B] | > 128 | > 128 |  | > 128 |  |  | > 128 | > 128 | > 128 |  | > 128 | > 128 | > 128 | > 128 | > 128
